Laboratory results as given in the Kinase Knowledgebase extract (Sharma et al. 2016).

Molecular target: ROCK2 (human) (UniProt O75116)
Experiment: Inhibition of ROCK2 Kinase Activity

Sequence of ROCK2 (human) (O75116 whole entry, looked up): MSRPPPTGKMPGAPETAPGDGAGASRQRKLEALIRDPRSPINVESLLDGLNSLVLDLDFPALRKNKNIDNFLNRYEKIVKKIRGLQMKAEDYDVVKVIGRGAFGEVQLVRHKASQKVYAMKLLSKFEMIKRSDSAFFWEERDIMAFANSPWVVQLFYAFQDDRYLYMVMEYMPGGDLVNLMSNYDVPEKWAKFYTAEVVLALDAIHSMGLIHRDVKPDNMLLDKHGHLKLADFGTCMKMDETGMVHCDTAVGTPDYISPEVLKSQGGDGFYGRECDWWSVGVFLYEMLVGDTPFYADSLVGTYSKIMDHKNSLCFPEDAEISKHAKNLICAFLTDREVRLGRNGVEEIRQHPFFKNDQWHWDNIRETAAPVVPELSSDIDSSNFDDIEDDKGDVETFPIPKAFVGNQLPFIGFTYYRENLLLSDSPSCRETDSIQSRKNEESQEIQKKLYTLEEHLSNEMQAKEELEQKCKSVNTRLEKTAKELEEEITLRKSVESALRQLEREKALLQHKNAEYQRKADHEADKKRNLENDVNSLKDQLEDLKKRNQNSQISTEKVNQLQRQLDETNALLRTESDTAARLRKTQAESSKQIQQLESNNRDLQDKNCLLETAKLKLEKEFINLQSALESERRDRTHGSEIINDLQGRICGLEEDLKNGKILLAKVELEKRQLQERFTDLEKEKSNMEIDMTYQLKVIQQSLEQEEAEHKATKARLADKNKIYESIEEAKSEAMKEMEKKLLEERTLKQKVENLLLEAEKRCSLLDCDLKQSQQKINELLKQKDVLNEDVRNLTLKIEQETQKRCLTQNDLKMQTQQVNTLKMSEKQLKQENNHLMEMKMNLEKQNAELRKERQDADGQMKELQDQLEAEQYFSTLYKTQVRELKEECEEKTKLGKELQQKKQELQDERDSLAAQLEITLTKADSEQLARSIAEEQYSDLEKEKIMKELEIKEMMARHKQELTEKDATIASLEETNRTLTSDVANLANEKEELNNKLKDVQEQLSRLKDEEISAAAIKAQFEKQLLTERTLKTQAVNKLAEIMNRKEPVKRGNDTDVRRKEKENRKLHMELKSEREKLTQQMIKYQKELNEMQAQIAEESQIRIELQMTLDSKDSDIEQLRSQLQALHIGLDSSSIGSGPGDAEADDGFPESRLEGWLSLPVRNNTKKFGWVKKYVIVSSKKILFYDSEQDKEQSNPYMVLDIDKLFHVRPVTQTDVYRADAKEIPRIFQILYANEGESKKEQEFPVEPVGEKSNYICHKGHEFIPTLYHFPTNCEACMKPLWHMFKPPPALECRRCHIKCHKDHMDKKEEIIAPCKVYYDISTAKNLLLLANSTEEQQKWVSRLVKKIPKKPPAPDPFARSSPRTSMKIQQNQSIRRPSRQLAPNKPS

Structure (SMILES) | IC50 [nM]
NC(c1ccc(C(=O)Nc2ccncc2)cc1)C1CCCN1C(=O)C1(c2ccc(F)c(Cl)c2)CC1 (stereo not given) | 500 to 5000
Cc1ccc(C)c(CC(=O)NCC(N)c2ccc(C(=O)Nc3ccncc3)cc2)c1 (stereo not given) | 500 to 5000
NC(CNC(=O)C1(c2ccc(F)c(F)c2)CC1)c1ccc(C(=O)Nc2ccncc2)cc1 (stereo not given) | 50 to 500
NC(c1ccc(C(=O)Nc2ccncc2)cc1)C1CCCN1C(=O)Cc1ccc(Cl)c(Cl)c1 (stereo not given) | 500 to 5000
CC(=NOCC(=O)NCC(N)c1ccc(C(=O)Nc2ccncc2)cc1)c1ccccc1 (stereo not given) | 50 to 500
COc1ccccc1CC(=O)N(C)CC(N)c1ccc(C(=O)Nc2ccncc2)cc1 (stereo not given) | 500 to 5000
NC(c1ccc(C(=O)Nc2ccncc2)cc1)C1CCCN1C(=O)Cc1cccc(Br)c1 (stereo not given) | 50 to 500
NC(CNC(=O)COc1ccc(F)cc1)c1ccc(C(=O)Nc2ccncc2)cc1 (stereo not given) | 50 to 500
NC(CNC(=O)c1ccnc2ccccc12)c1ccc(C(=O)Nc2ccncc2)cc1 (stereo not given) | 500 to 5000
NC(CNC(=O)C1(c2ccc(F)c(F)c2)CCCC1)c1ccc(C(=O)Nc2ccncc2)cc1 (stereo not given) | 50 to 500
NC(CC(=O)NCc1cc(Cl)cc(Cl)c1)c1ccc(C(=O)Nc2ccncc2)cc1 (stereo not given) | 50 to 500
NC(CNC(=O)[C@H]1CCC(=O)N1)c1ccc(C(=O)Nc2ccncc2)cc1 (stereo not given in full) | 50 to 500
NC(CNC(=O)CCc1cccnc1)c1ccc(C(=O)Nc2ccncc2)cc1 (stereo not given) | 500 to 5000
NC(c1ccc(C(=O)Nc2ccncc2)cc1)C1CCCN1C(=O)Cc1ccc(Cl)cc1 (stereo not given) | 500 to 5000
COc1ccc(NC(=O)CC(N)c2ccc(C(=O)Nc3ccncc3)cc2)cc1 (stereo not given) | 50 to 500
CC(C)CCC(=O)NCC(N)c1ccc(C(=O)Nc2ccncc2)cc1 (stereo not given) | 500 to 5000
NC(CNC(=O)CC1CCCCC1)c1ccc(C(=O)Nc2ccncc2)cc1 (stereo not given) | 500 to 5000
CN(Cc1ccccc1)C(=O)CC(N)c1ccc(C(=O)Nc2ccncc2)cc1 (stereo not given) | 50 to 500
NC(CNC(=O)Cc1csc(-c2ccccc2)n1)c1ccc(C(=O)Nc2ccncc2)cc1 (stereo not given) | 50 to 500
N[C@H](CNC(=O)C1(c2ccc(Cl)cc2)CC1)c1ccc(C(=O)Nc2ccncc2)cc1 | 50 to 500

Structure (SMILES) | IC50 [nM]
NC(c1ccc(C(=O)Nc2ccncc2)cc1)C1CCCN1C(=O)C1CCOc2ccc(F)cc21 (stereo not given) | 500 to 5000
NC(CNC(=O)c1ccncc1)c1ccc(C(=O)Nc2ccncc2)cc1 (stereo not given) | 500 to 5000
NC(CC(=O)NC(Cc1ccccc1)c1ccccc1)c1ccc(C(=O)Nc2ccncc2)cc1 (stereo not given) | 50 to 500
CC(CNC(=O)CC(N)c1ccc(C(=O)Nc2ccncc2)cc1)c1ccccc1 (stereo not given) | 50 to 500
CN(CC(N)c1ccc(C(=O)Nc2ccncc2)cc1)C(=O)Cc1ccc2ccccc2c1 (stereo not given) | 50 to 500
CC(C)(C(=O)N1CCCC1C(N)c1ccc(C(=O)Nc2ccncc2)cc1)c1ccc(Cl)c(Cl)c1 (stereo not given) | 500 to 5000
COc1cccc2cc(C(=O)NCC(N)c3ccc(C(=O)Nc4ccncc4)cc3)oc12 (stereo not given) | 50 to 500
CN(CC(N)c1ccc(C(=O)Nc2ccncc2)cc1)C(=O)C1(c2cccs2)CC1 (stereo not given) | 500 to 5000
NC(CC(=O)NC1Cc2ccccc2C1)c1ccc(C(=O)Nc2ccncc2)cc1 (stereo not given) | 50 to 500
NC(c1ccc(C(=O)Nc2ccncc2)cc1)C1CCCN1C(=O)Cc1cccc(Cl)c1F (stereo not given) | 500 to 5000
NC(CC(=O)NCc1ccc(Br)cc1F)c1ccc(C(=O)Nc2ccncc2)cc1 (stereo not given) | 50 to 500
CC(C)(C(=O)NC[C@@H](N)c1ccc(C(=O)Nc2ccncc2)cc1)c1ccc(Cl)cc1 | 50 to 500
NC(CC(=O)NCCc1ccc2c(c1)Cc1ccccc1-2)c1ccc(C(=O)Nc2ccncc2)cc1 (stereo not given) | 50 to 500
NC(CC(=O)N[C@@H]1CCCc2ccccc21)c1ccc(C(=O)Nc2ccncc2)cc1 (stereo not given in full) | 50 to 500
COc1ccc(CNC(=O)CC(N)c2ccc(C(=O)Nc3ccncc3)cc2)c(OC)c1 (stereo not given) | 50 to 500
CN(CC(N)c1ccc(C(=O)Nc2ccncc2)cc1)C(=O)Cc1csc(-c2ccccc2)n1 (stereo not given) | 500 to 5000
Cc1ccsc1C=NOCC(=O)NCC(N)c1ccc(C(=O)Nc2ccncc2)cc1 (stereo not given) | 500 to 5000
N[C@@H](CC(=O)N[C@H]1CCCc2ccccc21)c1ccc(C(=O)Nc2ccncc2)cc1 | 50 to 500
CN(CC(N)c1ccc(C(=O)Nc2ccncc2)cc1)C(=O)Cc1cncc(Br)c1 (stereo not given) | 500 to 5000
NC(CC(=O)NC1CCCc2ccccc21)c1ccc(C(=O)Nc2ccncc2)cc1 (stereo not given) | 50 to 500
